Source: publication PMC4234457, “Primary porcine proximal tubular cells as an alternative to human primary renal cells in vitro: an initial characterization” (BMC Cell Biology, 2013)
Where a name gives a salt, the structure may show the parent alone. Read-outs that look alike come from different tables or passages of the source.

Assays:
PKC [1] = experiment: Transport assays (kinetics): cellular uptake of radiolabelled PAH and MTX across BBM and BLM of PKC on filter inserts; assay type: in vitro ADME, porcine; conditions: for Km: confluent PKC, 30 min incubation, mean ± SEM, n = 3
Experimental: For transport studies, tightness of the cellular monolayers was inspected microscopically before use. Additionally, radiolabelled substrates were measured in the both chambers (above and below the cell layer) to determine cell layer leakiness. In case of lacking or reduced tightness of the monolayer, very high counts (dpm) were measured in the respective opposite compartment. These resulting counts (dpm) were several-magnitudes greater than those that could have been expected from potential transepithelial transport. Data from cell preparations with such apparent cell layer leakiness were omitted from calculation.
For kinetic data, raw transport data (dpm) were submitted to intra-assay normalization using the blanks described above and calculated using the following equation:
meandpm×totalvolume/countedvolume×60sec×specificactivity×proteincontent×assaytime=substratepmol/mg×min

[2] = test system: primary human proximal tubular cells; design: method as in PMID 16997449; conditions: cited from earlier work
pOat1 = conditions: cited from earlier work; for Inhibition of pOat1-mediated PAH uptake: oocytes
hOAT3 = conditions: cited from earlier work
OAT3 (SLC22A8) = test system: OAT3 (SLC22A8); design: method as in supplement 1; conditions: Rat, cited from earlier work
pOat3 = conditions: cited from earlier work; for Inhibitory effect on pOat3-mediated ES transport: oocytes
PKC [3] = experiment: Inhibition of cellular PAH uptake in PKC; conditions: 50 μM PAH, inhibitor 1 mM, 10 min; for Reduction of PAH BBM uptake: Figure 3A
Experimental: For transport studies, PKC were seeded (1 × 10^5 cells/cm^2) on 6-well PET filter inserts with 0.4 μm pore size. The use of filter inserts allows measurement of transport across the BLM (basolateral membrane) and the BBM (brushborder membrane) by addition of substrates to media in the lower and upper compartment, respectively. […] The cells were incubated at 37°C for the indicated times. […] Thereafter, cells were acidified with 1 M HCl and an aliquot was used for protein determination using the Bradford assay. 1 ml of medium from each compartment and of solubilized cells was placed into 10 ml scintillation cocktail and radioactivity was measured in a Beckman LS 6500 scintillation counter.

Oat1 or Oat3 = experiment: Transporter induction experiments (RT-PCR of transporter mRNA in PKC); assay type: cell-based, porcine
Experimental: For transporter induction experiments, freshly isolated PKC cells were seeded (total of 2 × 10^4 cells cm^-2) on 6-well ThinCert PET tissue culture inserts in standard culture medium and medium was changed every 48 hours. […] After 48 hours of exposure, samples for RNA extraction were prepared by standard trypsin-EDTA treatment followed by washing with PBS. Resulting cell pellets were snap-frozen and stored at -80°C until use.
Total RNA was prepared from cell pellets and minced pieces of tissue (rat kidney and porcine kidney cortex) via the phenol-chloroform method using Trizol (Invitrogen, Karlsruhe, Germany). Concentration and quality was estimated via 260/280 nm values. Representative samples were tested for RNA integrity via denaturing electrophoresis. cDNA was prepared using 1 μg total RNA, Oligo (dT)18 and M-MuLV reverse transcriptase according to manufacturer’s instructions. PCR was performed using 2 μl cDNA sample, 2 × PCR Master Mix, specific primers (Table 3). Amplification was performed with an initial denaturation step at 92°C for 3 min followed by 30 cycles of 94°C for 60 sec, 58°C for 60 sec and 72°C for 60 sec and a final extension step at 72°C for 7 min.

hOAT1 = conditions: hOAT1, MTX; cited from earlier work
hOAT4 = conditions: hOAT4, MTX; cited from earlier work
hMRP4 = conditions: hMRP4, MTX; cited from earlier work
[4] = test system: primary porcine kidney cells (PKC); experiment: MTT reduction cytotoxicity assay in PKC; conditions: for EC50: read-out: EC50 (cytotoxicity), 1-500 μM, positive control
Experimental: Cytotoxicity experiments using the MTT reduction assay as previously described, were conducted to estimate non-toxic concentrations for subsequent analyses. All chemicals and stock solutions (Tables 1 and 2) were sterilized by filtration (0.2 μm) prior to testing. […] Absorbance was read at 550 nm using a microplate reader (Infinite M200, Tecan, Crailsheim, Germany).
Conversely, in the transport induction experiments (prolonged substrate exposure/low concentrations, Table 2) cytotoxicity was determined after 24, 48, 72 and 96 hours of exposure. All assays were performed with the respective vehicle controls (Tables 1 and 2) and cadmium chloride as positive control.
Cytotoxicity data were calculated as means ± SEM from at least three independent replicate experiments conducted in technical duplicates, followed by a One-way ANOVA with a subsequent Dunnett’s multiple comparison test (P < 0.05).

[5] = PKC, 50 nM or 1 μM to basolateral compartment, 48 hours, RT-PCR

## Nc1ccc(C(=O)NCC(=O)O)cc1 [p-aminohippuric acid]
PKC [1]; PKC, 50 μM substrate, Figure 2B
  Time to saturation of PAH uptake: 5 to 10 min
PKC [1]; PKC, PAH uptake, Figure 2A
  BBM uptake compared to BLM uptake: about 3 times
PKC [1]; basolateral membrane, read-out: Km of PAH uptake across BLM
  Km: 187 ± 70.2 µM
PKC [1]; brushborder membrane, read-out: Km of PAH uptake across BBM
  Km: 58.8 ± 12.6 µM
[2]; primary human proximal tubular cells, read-out: BBM Km of PAH uptake
  Km: 36.6 ± 1.2 µM
[2]; primary human proximal tubular cells, read-out: BLM Km of PAH uptake
  Km: 57.5 ± 4.1 µM
pOat1; OAT1 (SLC22A6), Pig, ref supplement 1, 2, read-out: KM (PAH)
  Km: 3.7 µM
pOat1; one pOat1 splice variant expressed in Xenopus laevis oocytes
  Affinity of the other pOat1 variant: did not show any affinity
pOat1; pOat1 variant expressed in Xenopus laevis oocytes, read-out: apparent Km
  Km: 3.75 ± 1.6 µM
hOAT3; OAT3 (SLC22A8), Human, ref supplement 1, read-out: KM (PAH)
  Km: 50 to 100 µM
OAT3 (SLC22A8); ref supplement 1, read-out: KM (PAH)
  Km: 60 to 65 µM

## C[C@]12CC[C@@H]3c4ccc(OS(=O)(=O)O)cc4CC[C@H]3[C@@H]1CCC2=O [estrone sulfate]
pOat3; pOat3 expressed in X. laevis oocytes, read-out: apparent Km
  Km: 7.8 ± 1.3 µM
hOAT3; hOAT3, ES, read-out: Km
  Km: 3.1 to 9.5 µM
OAT3 (SLC22A8); ref supplement 1, read-out: KM (ES)
  Km: 2.3 to 5.3 µM
PKC [3]
  Inhibition of PAH uptake from either direction (BBM or BLM): not able to inhibit PAH uptake

## C[C@@H]1Cc2c(Cl)cc(C(=O)N[C@@H](Cc3ccccc3)C(=O)O)c(O)c2C(=O)O1 [ochratoxin A]
PKC [3]
  Reduction of PAH BBM uptake: up to 30%

## O=C1OC(c2ccc(O)c(S(=O)(=O)O)c2)(c2ccc(O)c(S(=O)(=O)O)c2)c2c(Br)c(Br)c(Br)c(Br)c21 [bromosulphophthalein]
Oat1 or Oat3; [5]
  Stimulatory effect on transporter mRNA expression: none of the tested substances showed any stimulatory effect
PKC [3]
  Reduction of PAH BBM uptake: up to 30%

## CN(Cc1cnc2nc(N)nc(N)c2n1)c1ccc(C(=O)N[C@@H](CCC(=O)O)C(=O)O)cc1 [methotrexate]
PKC [1]; PKC, radiolabelled substrate
  Cellular uptake: negligible
[2]; human kidney cells (HKC), hOAT1-associated, read-out: Km of MTX transport across the BBM
  Km: 80.4 ± 3.4 µM
[2]; human kidney cells (HKC), hOAT1-associated, read-out: Km of MTX transport across the BLM
  Km: 28.5 ± 1.1 µM
hOAT1
  Km: 554 to 724 µM
hOAT3; hOAT3, MTX, read-out: Km
  Km: 10.9 to 21.1 µM
hOAT4
  Km: 17.8 µM
hMRP4
  Km: 220 to 1300 µM
PKC [3]
  Reduction of PAH BBM uptake: up to 30%

## C[C@]12CC[C@H](OS(=O)(=O)O)CC1=CC[C@@H]1[C@@H]2CC[C@]2(C)C(=O)CC[C@@H]12 [dehydroepi-androsteron sulfate]
Oat1 or Oat3; [5]
  Stimulatory effect on transporter mRNA expression: none of the tested substances showed any stimulatory effect
pOat3
  Inhibitory effect on pOat3-mediated ES transport: inhibitory effect

## N[C@@H](Cc1cc(I)c(Oc2ccc(O)c(I)c2)c(I)c1)C(=O)O [triiodothyronine]
Oat1 or Oat3; [5]
  Stimulatory effect on transporter mRNA expression: none of the tested substances showed any stimulatory effect

## CCCN(CCC)S(=O)(=O)c1ccc(C(=O)O)cc1 [probenecid]
pOat1; 1 mM
  Inhibition of pOat1-mediated PAH uptake: could be inhibited
pOat3
  Inhibitory effect on pOat3-mediated ES transport: inhibitory effect
PKC [3]
  Inhibition of PAH uptake from either direction (BBM or BLM): did not show any inhibitory effect

## C[C@H](CCC(=O)NCCS(=O)(=O)O)[C@H]1CC[C@H]2[C@@H]3[C@H](O)C[C@@H]4C[C@H](O)CC[C@]4(C)[C@H]3C[C@H](O)[C@]12C [taurocholic acid]
[4]
  Significant effects (cytotoxicity of potential transporter inducers): no
Oat1 or Oat3
  Stimulatory effect on transporter mRNA expression: none of the tested substances showed any stimulatory effect

## O=C(O)CCCC(=O)O [glutarate]
pOat1; 0.5 mM
  Inhibition of pOat1-mediated PAH uptake: could be inhibited
pOat3
  Inhibitory effect on pOat3-mediated ES transport: inhibitory effect

## [Cl][Cd][Cl] [cadmium chloride]
[4]; PKC, MTT, exposure >48 hours (data not shown)
  Cytotoxicity on longer exposure: did not result in further increased cytotoxicity
[4]; PKC, MTT, 24 hours of exposure
  EC50: 103 µM
[4]; PKC, MTT, 48 hours of exposure
  EC50: 57.2 µM
